Source: patent publication US9067905B2, “Sulphone compounds and methods of making and using same” (Zafgen, Inc., priority 2009, dated 2015)
Where a name gives a salt, the structure may show the parent alone.

target: T1, recombinant human MetAP2 (Homo sapiens, UniProt P50579); experiment: Inhibition of recombinant human MetAP2 activity (Amplex red fluorescence assay); format: biochemical; settings: manganese Flag-MetAP2, 0.75 mM Methionine-Alanine-Serine substrate, 30 minutes at 25° C., pH 7.5, 1% DMSO
T1 construct: Flag; made in house; host or cells: Sf9 insect cells
Description: Compounds are tested for their capacity to inhibit recombinant human MetAP2 activity using the following assay.
Human recombinant Flag-MetAP2 expressed in Sf9 cells followed by affinity purification and EDTA treatment to remove endogenous active site cation is dialysed against MnCl2 to produce the manganese enzyme used in the assay. The assay is carried out for 30 minutes at 25° C. in 50 mM HEPES buffer containing 100 mM NaCl, pH 7.5 the presence of 0.75 mM Methionine-Alanine-Serine (MAS) substrate and 50 μg/ml amino acid oxidase using a dilution of purified MetAP2 giving approximately 50,000 RFU control activity. Cleavage of the substrate by MetAP2 and oxidation of free methionine by amino acid oxidase is detected and quantified using fluorescence generated by Amplex red (10-acetyl-3,7-dihydroxyphenoxazine) in combination with horseradish peroxidase which detects H2O2 released during the oxidation step. The fluorescent signal is detected using a multiwell fluorimeter. Compounds are diluted in DMSO prior to addition to assay buffer, the final DMSO concentration in the assay being 1%.
The IC50 is defined as the concentration at which a given compound achieves 50% inhibition of control. IC50 values are calculated using the XLfit software package (version 2.0.5).

T1 sequence (P50579 whole entry): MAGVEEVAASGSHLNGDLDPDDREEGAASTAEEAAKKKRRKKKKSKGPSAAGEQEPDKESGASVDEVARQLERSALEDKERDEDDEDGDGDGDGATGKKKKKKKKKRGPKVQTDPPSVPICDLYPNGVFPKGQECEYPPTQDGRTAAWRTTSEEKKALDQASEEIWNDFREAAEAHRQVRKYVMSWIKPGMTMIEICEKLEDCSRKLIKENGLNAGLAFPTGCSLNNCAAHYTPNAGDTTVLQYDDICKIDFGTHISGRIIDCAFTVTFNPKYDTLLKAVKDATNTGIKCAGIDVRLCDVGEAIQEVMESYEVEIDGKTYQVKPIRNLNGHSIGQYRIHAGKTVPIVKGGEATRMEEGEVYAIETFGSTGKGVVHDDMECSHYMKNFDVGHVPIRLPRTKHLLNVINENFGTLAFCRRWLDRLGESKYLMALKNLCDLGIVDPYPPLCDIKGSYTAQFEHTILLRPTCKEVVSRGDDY

| SMILES | IC50 |
| --- | --- |
| NCCNc1c(-c2ccoc2)ccc(CS(=O)(=O)c2ccccc2)c1C(=O)O [2-(2-Aminoethylamino)-6-benzenesulphonylmethyl-3-(furan-3-yl)-benzoic acid hydrochloride] | > 2000 nM |
| CC(N)COc1c(-c2ccoc2)ccc(CS(=O)(=O)c2ccccc2)c1C(=O)O (stereo not drawn) [2-(2-Aminopropoxy)-6-(benzenesulphonylmethyl)-3-(furan-3-yl)-benzoic acid hydrochloride] | > 2000 nM |
| NCCCc1c(-c2ccoc2)ccc(CS(=O)(=O)c2ccccc2)c1C(=O)O [2-(3-Aminopropyl)-6-(benzenesulphonylmethyl)-3-(furan-3-yl)-benzoic acid hydrochloride] | > 2000 nM |
| O=C(O)c1c(CS(=O)(=O)c2ccccc2)ccc(-c2ccoc2)c1OC1CNC1 [2-(Azetidin-3-yloxy)-6-(benzenesulphonylmethyl)-3-(furan-3-yl)-benzoic acid hydrochloride] | > 2000 nM |
| Cn1nccc1-c1ccc(CS(=O)(=O)c2ccccc2)c(C(=O)O)c1 [2-(Benzenesulphonylmethyl)-5-(2-methyl-2H-pyrazol-3-yl)benzoic acid] | > 2000 nM |
| O=C(O)c1cc(-c2cnco2)ccc1CS(=O)(=O)c1ccccc1 [2-(Benzenesulphonylmethyl)-5-(oxazol-5-yl)benzoic acid] | > 2000 nM |
| COc1cccc(CS(=O)(=O)c2ccccc2)c1C(=O)O [2-(Benzenesulphonylmethyl)-6-methoxybenzoic acid] | > 2000 nM |
| COc1cccc2ccc(CS(=O)(=O)c3ccccc3)c(C(=O)O)c12 [2-(Benzenesulphonylmethyl)-8-methoxynaphthalene-1-carboxylic acid] | > 2000 nM |
| COc1cccc(CS(=O)(=O)c2ccccc2C)c1C(=O)O [2-Methoxy-6-(2-methylbenzenesulphonylmethyl)benzoic acid] | > 2000 nM |
| CN=S(=O)(Cc1ccc(-c2ccoc2)c(OC)c1C(=O)O)c1ccccc1 (stereo not drawn) [3-(Furan-3-yl)-2-methoxy-6-[(N-methyl-S-phenylsulphonimidoyl)methyl]benzoic acid] | 200 to 2000 nM |
| COc1c(-c2ccoc2)ccc(CS(=N)(=O)c2ccccc2)c1C(=O)O (stereo not drawn) [3-(Furan-3-yl)-2-methoxy-6-[(S-phenylsulphonimidoyl)methyl]benzoic acid] | 200 to 2000 nM |
| COc1c(-c2ccoc2)ccc(CS(=O)(=O)c2cccc(O)c2)c1C(=O)O [3-(Furan-3-yl)-6-(3-hydroxybenzenesulphonylmethyl)-2-methoxy-benzoic acid] | 200 to 2000 nM |
| COc1c(-c2ccoc2)ccc(CS(=O)(=O)N2CCC(O)C2)c1C(=O)O (stereo not drawn) [3-(Furan-3-yl)-6-(3-hydroxypyrrolidine-1-ylsulphonylmethyl)-2-methoxybenzoic acid] | 200 to 2000 nM |
| COc1cccc(S(=O)(=O)Cc2ccc(-c3ccoc3)c(OC)c2C(=O)O)c1 [3-(Furan-3-yl)-6-(3-methoxybenzenesulphonylmethyl)-2-methoxybenzoic acid] | > 2000 nM |
| CCc1ccc(CS(=O)(=O)c2ccccc2C)c(C(=O)O)c1OC [3-Ethyl-2-methoxy-6-(2-methylbenzenesulphonylmethyl)benzoic acid] | 200 to 2000 nM |
| CCc1ccc(CS(=O)(=O)c2ccc(F)cc2)c(C(=O)O)c1OC [3-Ethyl-6-(4-fluorobenzenesulphonylmethyl)-2-methoxybenzoic acid] | 200 to 2000 nM |
| CCc1ccc(C(C)S(=O)(=O)c2ccccc2)c(C(=O)O)c1OC (stereo not drawn) [6-(1-Benzenesulphonylethyl)-3-ethyl-2-methoxy-benzoic acid] | 200 to 2000 nM |
| COc1c(-c2ccoc2)ccc(CS(=O)(=O)c2ccccc2Cl)c1C(=O)O [6-(2-Chlorobenzenesulphonylmethyl)-3-(furan-3-yl)-2-methoxybenzoic acid] | 200 to 2000 nM |
| COc1c(-c2ccoc2)ccc(CS(=O)(=O)c2ccccc2F)c1C(=O)O [6-(2-Fluorobenzenesulphonylmethyl)-3-(furan-3-yl)-2-methoxybenzoic acid] | 200 to 2000 nM |
| CCc1ccc(CS(=O)(=O)c2ccc(Cl)cc2)c(C(=O)O)c1OC [6-(4-Chlorobenzenesulphonylmethyl)-3-ethyl-2-methoxy-benzoic acid] | > 2000 nM |
| COc1c(-c2ccoc2)ccc(CS(=O)(=O)N2C3CCC2CC3)c1C(=O)O [6-(7-Azabicyclo[2.2.1]heptane-7-ylsulphonylmethyl)-3-(furan-3-yl)-2-methoxybenzoic acid] | 200 to 2000 nM |
| COc1c(-c2ccoc2)ccc(CS(=O)(=O)N2C3CCCC2CC3)c1C(=O)O [6-(8-Azabicyclo[3.2.1]octane-8-ylsulphonylmethyl)-3-(furan-3-yl)-2-methoxybenzoic acid] | > 2000 nM |
| CCc1ccc(C[S+]([O-])c2ccccc2)c(C(=O)O)c1OC (stereo not drawn) [6-(Benzenesulphinylmethyl)-3-ethyl-2-methoxy-benzoic acid] | > 2000 nM |
| CN(C)CCOc1c(-c2ccoc2)ccc(CS(=O)(=O)c2ccccc2)c1C(=O)O [6-(Benzenesulphonylmethyl)-2-(2-dimethylaminoethoxy)-3-(3-furanyl)benzoic acid hydrochloride] | > 2000 nM |

Continued, values first:

| IC50 | SMILES |
| --- | --- |
| 200 to 2000 nM | COc1ccccc1S(=O)(=O)Cc1ccc(-c2ccoc2)c(OCCN)c1C(=O)O [2-(2-Aminoethoxy)-3-(furan-3-yl)-6-(2-methoxybenzenesulphonyl-methyl)benzoic acid hydrochloride] |
| < 200 nM | CCc1ccc(CS(=O)(=O)c2ccccc2)c(C(=O)O)c1OCCN [2-(2-Aminoethoxy)-3-ethyl-6-benzenesulphonylmethylbenzoic acid hydrochloride] |
| < 200 nM | NCCOc1c(-c2ccoc2)ccc(CS(=O)(=O)c2cccc(Cl)c2)c1C(=O)O [2-(2-Aminoethoxy)-6-(3-chlorobenzenesulphonylmethyl)-3-(furan-3-yl)benzoic acid hydrochloride] |
| < 200 nM | NCCOc1c(-c2ccoc2)ccc(CS(=O)(=O)c2ccc(F)cc2)c1C(=O)O [2-(2-Aminoethoxy)-6-(4-fluorobenzenesulphonylmethyl)-3-(furan-3-yl)benzoic acid hydrochloride] |
| < 200 nM | NCCOc1c(-c2ccoc2)ccc(CS(=O)(=O)c2ccccc2)c1C(=O)O [2-(2-Aminoethoxy)-6-(benzenesulphonylmethyl)-3-(furan-3-yl)benzoic acid hydrochloride] |
| 200 to 2000 nM | NCCCOc1c(-c2ccoc2)ccc(CS(=O)(=O)c2ccccc2)c1C(=O)O [2-(3-Aminopropoxy)-6-(benzenesulphonylmethyl)-3-(furan-3-yl)benzoic acid hydrochloride] |
| 200 to 2000 nM | Cc1occc1-c1ccc(CS(=O)(=O)c2ccccc2)c(C(=O)O)c1 [2-(Benzenesulphonylmethyl)-5-(2-methylfuran-3-yl)benzoic acid] |
| 200 to 2000 nM | O=C(O)c1cc(-c2ccoc2)ccc1CS(=O)(=O)c1ccccc1 [2-(Benzenesulphonylmethyl)-5-(furan-3-yl)benzoic acid] |
| 200 to 2000 nM | CCc1ccc(CS(=O)(=O)c2ccccc2)c(C(=O)O)c1 [2-(Benzenesulphonylmethyl)-5-ethylbenzoic acid] |
| 200 to 2000 nM | O=C(O)c1c(CS(=O)(=O)c2ccccc2)ccc2ccccc12 [2-(Benzenesulphonylmethyl)naphthalene-1-carboxylic acid] |
| 200 to 2000 nM | COc1ccccc1S(=O)(=O)Cc1ccc(-c2ccoc2)c(OC)c1C(=O)O [3-(Furan-3-yl)-2-methoxy-6-(2-methoxybenzenesulphonylmethyl)-benzoic acid] |
| 200 to 2000 nM | COc1c(-c2ccoc2)ccc(CS(=O)(=O)c2ccccc2C)c1C(=O)O [3-(Furan-3-yl)-2-methoxy-6-(2-methyl-benzenesulphonylmethyl)benzoic acid] |
| < 200 nM | COc1c(-c2ccoc2)ccc(CS(=O)(=O)N2CCCCC2)c1C(=O)O [3-(Furan-3-yl)-2-methoxy-6-(piperidine-1-ylsulphonylmethyl)benzoic acid] |
| < 200 nM | COc1c(-c2ccoc2)ccc(CS(=O)(=O)c2ccccn2)c1C(=O)O [3-(Furan-3-yl)-2-methoxy-6-(pyridin-2-ylsulphonylmethyl)benzoic acid] |
| 200 to 2000 nM | COc1c(-c2ccoc2)ccc(CS(=O)(=O)c2cccnc2)c1C(=O)O [3-(Furan-3-yl)-2-methoxy-6-(pyridin-3-ylsulphonylmethyl)benzoic acid] |
| 200 to 2000 nM | COc1c(-c2ccoc2)ccc(CS(=O)(=O)N2CCCC2)c1C(=O)O [3-(Furan-3-yl)-2-methoxy-6-(pyrrolidin-1-ylsulphonylmethyl)-benzoic acid] |
| < 200 nM | COc1c(-c2ccoc2)ccc(CS(=O)(=O)c2ccccc2O)c1C(=O)O [3-(Furan-3-yl)-6-(2-hydroxybenzenesulphonylmethyl)-2-methoxybenzoic acid] |
| < 200 nM | COc1c(-c2ccoc2)ccc(CS(=O)(=O)c2cccc(Cl)c2)c1C(=O)O [6-(3-Chlorobenzenesulphonylmethyl)-3-(furan-3-yl)-2-methoxybenzoic acid] |
| < 200 nM | COc1c(-c2ccoc2)ccc(CS(=O)(=O)c2cccc(F)c2)c1C(=O)O [6-(3-Fluorobenzenesulphonylmethyl)-3-(furan-3-yl)-2-methoxybenzoic acid] |
| < 200 nM | COc1c(-c2ccoc2)ccc(CS(=O)(=O)N2CCC(F)(F)CC2)c1C(=O)O [6-(4,4-Difluoropiperidine-1-ylsulphonylmethyl)-3-(furan-3-yl)-2-methoxybenzoic acid] |
| < 200 nM | COc1c(-c2ccoc2)ccc(CS(=O)(=O)c2ccc(F)cc2)c1C(=O)O [6-(4-Fluorobenzenesulphonylmethyl)-3-(furan-3-yl)-2-methoxybenzoic acid] |
